Reference: PubChem BioAssay (NCI)
“And” between values parts separate entries of the source, which are not always exact repeats. Equal values may be shown once.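 Results reflect a 48-hour exposure of cells in 96-well plates to compound at five concentrations. GI50 is the concentration that inhibits growth by half. TGI marks complete inhibition of growth.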

Key:
Experiment in all cases: NCI anticancer screen, dose series, 48 h
HCC-2998 colon = system: HCC-2998 colon
DMS 114 small cell lung = system: DMS 114 small cell lung
786-0 renal = system: 786-0 renal
A498 renal = system: A498 renal
NCI-H23 lung = system: NCI-H23 lung
EKVX NSCLC = system: EKVX NSCLC
SK-MEL-5 melanoma = system: SK-MEL-5 melanoma
OVCAR-4 ovarian = system: OVCAR-4 ovarian
SNB-78 CNS = system: SNB-78 CNS
MDA-MB-435 = system: MDA-MB-435

Structure (SMILES)	TGI (HCC-2998 colon)	TGI (DMS 114 small cell lung)	TGI (786-0 renal)	TGI (A498 renal)	TGI (NCI-H23 lung)	TGI (EKVX NSCLC)	TGI (SK-MEL-5 melanoma)	TGI (OVCAR-4 ovarian)	TGI (SNB-78 CNS)	GI50 (HCC-2998 colon)	GI50 (DMS 114 small cell lung)	GI50 (786-0 renal)	GI50 (A498 renal)	GI50 (NCI-H23 lung)	GI50 (EKVX NSCLC)	GI50 (SK-MEL-5 melanoma)	GI50 (OVCAR-4 ovarian)	GI50 (SNB-78 CNS)	TGI (MDA-MB-435)	GI50 (MDA-MB-435)
Nc1ccccc1C(=O)/C=C/c1c(O)ccc2ccccc12	> 100 µM	> 100 µM	> 100 µM	> 100 µM	> 100 µM	> 100 µM	> 100 µM	> 100 µM	> 100 µM	–	–	–	–	–	–	–	–	–	–	–
O=[N+]([O-])c1cccc(C2=NOC(C3CCCCC3)C2)c1 (stereo unspecified)	> 100 µM	> 100 µM	> 100 µM	> 100 µM	> 100 µM	–	> 100 µM	> 100 µM	> 100 µM	–	–	–	–	–	–	–	–	–	–	–
O=C(CC(=O)C1CCOC1=O)C(=O)Nc1cccc(Cl)c1 (stereo unspecified)	> 100 µM	> 100 µM	> 100 µM	> 100 µM	> 100 µM	> 100 µM	> 100 µM	> 100 µM	> 100 µM	–	–	–	–	–	–	–	–	–	–	–
COc1ccc(CC2c3c(cc(OC)c(OC)c3OC)CCN2C)cc1OC (stereo unspecified)	> 100 µM	–	> 100 µM	> 100 µM	> 100 µM	> 100 µM	> 100 µM	> 100 µM	> 100 µM	–	–	–	–	–	–	–	–	–	–	–
CC(C)CCC[C@@H](C)C1CCC2[C@@H]3CC=C4C[C@@H](C(=O)NCCN(C)C)CC[C@]4(C)C3CC[C@@]21C (stereo partly specified)	65.6 µM	38.1 µM	43.2 µM	> 100 µM	52.1 µM	> 100 µM	–	> 100 µM	> 100 µM	–	–	–	–	–	–	–	–	–	–	–
CC(C(=O)c1ccc(Cl)cc1)/C(=N/NC(=O)NN)C(=O)Nc1cccc(C(F)(F)F)c1 (stereo unspecified)	> 100 µM	> 100 µM	> 100 µM	> 100 µM	> 100 µM	> 100 µM	> 100 µM	> 100 µM	> 100 µM	–	–	–	–	–	–	–	–	–	–	–
COc1cccc(/C=N/[N-]C(=O)c2ccncc2)c1[O-].COc1cccc(/C=N/[N-]C(=O)c2ccncc2)c1[O-].[O]=[U](=[O])([OH2+])[OH2+]	> 100 µM	12.5 µM	48.6 µM	47.7 µM	> 70 µM	> 100 µM	> 100 µM	> 100 µM	> 100 µM	12.8 µM	3.3 µM	4.37 µM	21.5 µM	3.93 µM	2.86 µM	11.6 µM	> 34.2 µM	> 87.7 µM	–	–
CC(C)(C)c1ccc2c(c1)S(=O)(=O)Nc1ccc(Cl)cc1NS(=O)(=O)c1cc(C(C)(C)C)ccc1OCCOCCOCCO2	> 100 µM	> 100 µM	> 100 µM	> 100 µM	> 100 µM	> 100 µM	> 100 µM	28 µM	> 100 µM	–	–	–	–	–	–	–	–	–	–	–
CC(C)=C1CCC(CN(C)C)C1=O (stereo unspecified)	33.2 µM	38.4 µM	25.9 µM	36.9 µM	> 100 µM	31.9 µM	32.9 µM	28.4 µM	–	–	–	–	–	–	–	–	–	–	–	–
NC(=O)C(=O)CC(=O)c1ccccc1NC1=CC(=O)C(=O)c2ccccc21	> 100 µM	68.2 µM	> 100 µM	> 100 µM	> 100 µM	> 100 µM	> 55.1 µM	> 100 µM	> 100 µM	–	–	–	–	–	–	–	–	–	–	–
N#CC(=Nc1ccccc1N(C(=O)c1ccccc1)C(=O)c1ccccc1)c1ccccc1	> 100 µM	> 48.8 µM	> 100 µM	> 100 µM	> 100 µM	> 100 µM	> 100 µM	> 76.2 µM	> 100 µM	–	–	–	–	–	–	–	–	–	–	–
COC(=O)C(=O)C(C(C)=O)C(=O)NCc1ccc(OC)c(OC)c1 (stereo unspecified)	> 100 µM	> 100 µM	> 100 µM	> 100 µM	> 100 µM	> 100 µM	> 100 µM	> 100 µM	> 100 µM	–	–	–	–	–	–	–	–	–	–	–
CCOP(=O)(OCC)C(C(=O)OC)C(=O)C(=O)Nc1ccc(Cl)cc1Cl (stereo unspecified)	> 100 µM	> 100 µM	> 100 µM	> 100 µM	> 100 µM	> 100 µM	> 100 µM	> 100 µM	> 100 µM	–	–	–	–	–	–	–	–	–	–	–
Nc1nc(-c2ccc(Cl)c([N+](=O)[O-])c2)cs1	> 100 µM	> 100 µM	> 100 µM	92.1 µM	> 100 µM	> 100 µM	> 100 µM	> 100 µM	> 100 µM	–	–	–	–	–	–	–	–	–	–	–
O=C1NCCS(=O)(=O)N[C@@H](CC2=CC=CCC2)C(=O)N2CCCC12 (stereo partly specified)	> 100 µM	> 100 µM	> 100 µM	> 100 µM	> 100 µM	> 100 µM	> 100 µM	> 100 µM	> 100 µM	–	–	–	–	–	–	–	–	–	–	–
O=C(N/C(=C\c1ccc([N+](=O)[O-])cc1)c1nc2ccccc2[nH]1)c1ccccc1	> 100 µM	> 100 µM	> 100 µM	> 100 µM	> 100 µM	> 100 µM	> 100 µM	> 100 µM	> 100 µM	–	–	–	–	–	–	–	–	–	–	–
COC(=O)/C([Se]c1c(C)cc(C)cc1C)=C(/[Se]c1c(C)cc(C)cc1C)C(=O)OC	> 100 µM	> 100 µM	> 100 µM	> 100 µM	> 100 µM	> 100 µM	> 100 µM	> 100 µM	> 100 µM	–	–	–	–	–	–	–	–	–	–	–
COc1cc2c(cc1OC)[C@H]1CN3CCC[C@H]3C=C1c1ccc(OC)c(O)c1-2	0.0149 µM and 0.0736 µM	0.00014 µM	0.0169 µM	–	0.00184 µM	–	0.00133 µM	0.00362 µM	0.00049 µM	–	–	–	–	–	–	–	–	–	0.0269 µM	–
C=Cc1ccc(C)[n+](C[Si](C)(C)O[Si](C)(C)C[n+]2cc(C=C)ccc2C)c1	> 100 µM	> 100 µM	> 100 µM	–	> 100 µM	> 100 µM	> 100 µM	> 100 µM	> 100 µM	–	–	–	–	–	–	–	–	–	–	–
Cc1ccc(C)c(N2C/C(=N\NC(=O)CC#N)C(c3nc4ccccc4s3)C(=O)C2=O)c1 (stereo unspecified)	> 100 µM	> 100 µM	> 100 µM	> 100 µM	> 100 µM	> 100 µM	> 100 µM	> 100 µM	> 100 µM	–	–	–	–	–	–	–	–	–	–	–
Cc1[nH]c2ccccc2c1C1Cc2ccccc2N1C(=O)C#Cc1ccc([N+](=O)[O-])cc1 (stereo unspecified)	> 100 µM	> 100 µM	> 100 µM	> 100 µM	> 100 µM	> 100 µM	–	> 100 µM	> 100 µM	–	–	–	–	–	–	–	–	–	–	–
COc1ccc(-c2ccc3c(N4CCOC[C@@H]4C)nc(N4CCOC[C@@H]4C)nc3n2)cc1CO	3.21 µM	–	> 45.1 µM	0.00302 µM and < 0.0234 µM	> 100 µM	0.113 µM and 0.564 µM	–	0.0382 µM and 0.12 µM	–	0.0094 µM and 0.0254 µM	–	0.00494 µM and 0.0416 µM	0.00121 µM and < 0.01 µM	0.00731 µM and 0.0394 µM	0.00504 µM and 0.0229 µM	0.00471 µM and 0.0264 µM	0.00414 µM and < 0.0142 µM	–	0.0557 µM and 0.263 µM	0.00531 µM and 0.0227 µM
